Test results reported in patent US20250170129A1, “SENOTHERAPEUTIC AGENTS AND ALPHA-KLOTHO POLYPEPTIDES” (Mayo Foundation for Medical Education and Researc, priority 2022, published 2025).

How the values were obtained:
[1] = test system: α-Klotho; assay: Senolytics / AP20187 in young INK-ATTAC mice, kidney and urinary α-Klotho; assay type: in vivo, mouse; details: young (3-month-old) INK-ATTAC mice; Dasatinib (5 mg/kg) plus Quercetin (50 mg/kg) or AP20187 (10 mg/kg) (FIG. 12A)
Procedure: FIGS. 12A-12B. […] 3-month-old female INK-ATTAC mice were treated with vehicle, Dasatinib (5 mg/kg) plus Quercetin (50 mg/kg), or AP20187 (10 mg/kg). FIG. 12A) Kidneys were harvested and lysed to assay α-Klotho protein by Western blotting. FIG. 12B) Urinary α-Klotho in the same cohort was assayed by ELISA after a second and third treatment with senolytic agents and expressed as a function of creatinine.
α-Klotho was assayed by ELISA in 1:100 diluted mouse urine (IBL America, #27601). Human urine α-Klotho was assayed by ELISA (IBL America, #27998, RRID:AB_2750859). Urine α-Klotho measurements are expressed as a function of urine volume, creatinine (R&D Systems, #KGE005), and/or cystatin C (R&D Systems, #MSCTC0).
Tissue extracts were homogenized using a Bead Mill 24 homogenizer (Waltham) and lysed in NETN buffer (20 mM Tris-HCl, pH 8.0, 100 mM NaCl, 1 mM EDTA, 0.5% Nonidet P-40), 5 mM NaF, a protease inhibitor cocktail (Millipore Sigma), and 5 mM nicotinamide. After incubating 30 minutes at 4° C., samples were centrifuged at 15,000 rpm for 10 minutes at 4° C. Protein concentrations of the supernatants were determined by the Bradford protein assay (BioRad). Lysates were separated by SDS-PAGE and transferred by electrophoresis to PVDF membranes (Millipore Sigma). […]

[2] = test system: IL-1α; assay: IL-1α mRNA in hippocampus of old INK-ATTAC mice (qPCR); assay type: in vivo, mouse; details: 10 mg/kg i.p. (FIG. 3I)
Procedure: (§1) FIGS. 3A-3I. Genetic clearance of highly p16^Ink4a-expressing cells increases α-Klotho. Young (8-month-old) or old (27-29-month-old) INK-ATTAC male mice were treated with vehicle or AP20187 (n=3 young+vehicle; n=3 young+AP20187; n=7 old+vehicle; n=7 old+AP20187) to dimerize the FKBP-caspase-8 fusion protein expressed in highly p16^Ink4a-expressing cells to selectively eliminate […]. AP20187 (10 mg/kg) or vehicle was administered i.p. every 2 weeks for 6 weeks. FIG. 3A) Schematic view of treatments. FIG. 3B) Kidney α-Klotho mRNA was assayed by qPCR. One-way ANOVA, F=4.81, p=0.01, R^2=0.46; *p=0.03, **p<0.01. FIG. 3C) α-Klotho protein was assayed relative to GAPDH (Western blots in FIG. 13). One-way ANOVA: F=4.81, p=0.01, R^2=0.46; *p<0.05, ****p<0.0001. FIG. 3D) Mouse urine was collected 2 days after the last dose of AP20187. Urinary α-Klotho was assayed by ELISA and expressed as a function of creatinine. One-way ANOVA, F=61.53, p<0.00001, R^2=0.90; *p=0.04, ****p<0.0001. Choroid Plexus (FIG. 3E) α-Klotho protein was assayed by immunofluorescence. […]
(§2) Each cDNA sample was generated by reverse transcription using 1 μg RNA following the manufacturer's protocol (Thermo Fisher Scientific). […] Data were analysed by the ΔΔCt method.
(§3) Next, it was determined if removal of p16^Ink4a-expressing cells, many of which are senescent, increases α-Klotho in old mice. […]

[3] = test system: activin A; assay: Activin A mRNA in kidney of old INK-ATTAC mice (qPCR); assay type: in vivo, mouse; details: 10 mg/kg i.p. (FIG. 3H)
Procedure: as §1, §2, §3

[4] = test system: α-Klotho; assay: Clearance of p16Ink4a-expressing cells / senolytics in old INK-ATTAC mice, α-Klotho in kidney, urine, brain; assay type: in vivo, mouse; details: 10 mg/kg i.p.
Procedure: AP20187 (10 mg/kg) or vehicle was administered i.p. every 2 weeks for 6 weeks. […] FIG. 3B) Kidney α-Klotho mRNA was assayed by qPCR. One-way ANOVA, F=4.81, p=0.01, R^2=0.46; *p=0.03, **p<0.01. FIG. 3C) α-Klotho protein was assayed relative to GAPDH (Western blots in FIG. 13). One-way ANOVA: F=4.81, p=0.01, R^2=0.46; *p<0.05, ****p<0.0001. FIG. 3D) Mouse urine was collected 2 days after the last dose of AP20187. Urinary α-Klotho was assayed by ELISA and expressed as a function of creatinine. One-way ANOVA, F=61.53, p<0.00001, R^2=0.90; *p=0.04, ****p<0.0001. Choroid Plexus (FIG. 3E) α-Klotho protein was assayed by immunofluorescence. One-way ANOVA, F=20.98, R^2=0.80, **p<0.01, ****p<0.0001. Hippocampal (FIG. 3F) and cerebellar (FIG. 3G) α-Klotho mRNA was assayed by qPCR. […] Means±SEM; one-way ANOVA and post hoc Tukey's tests; F=3.84, p=0.038, R^2=0.40; *p=0.04 in (FIG. 3F); *p=0.04, F=7.87, p<0.01, R^2=0.60; *p=0.03 in (FIG. 3G); F=10.85; p<0.001, R^2=0.64; *p=0.03, ***p<0.0001 in (FIG. 3H); F=5.49; p=0.01, R^2=0.49; *p<0.05, **p=0.01 in (FIG. 3I).
Old (25-26-month-old) INK-ATTAC male mice were treated with vehicle or AP20187 or D+Q (n=7). AP20187 or D+Q or vehicle was administered every 2 weeks for 6 weeks. Mouse urine was collected 5 days after the last dose of AP20187 or D+Q. Urinary α-Klotho was assayed by ELISA and expressed as a function of creatinine (FIG. 10A) or Cystatin C (FIG. 10B). One-way ANOVA, A: *p=0.038, **p=0.0066, B: *p=0.048, **p=0.0048.
INK-ATTAC mice were as described elsewhere (Baker et al., Nature, 479(7372):232-6 (2011)). Briefly, in INK-ATTAC mice, the ATTAC gene is driven by a senescence-related p16^Ink4a promoter fragment. The fusion protein product of the ATTAC “suicide” gene contains a mutated FKBP moiety that can be cross-linked by AP20187, thereby activating the ATTAC protein caspase-8 moieties, causing apoptosis. […]
Each cDNA sample was generated by reverse transcription using 1 μg RNA following the manufacturer's protocol (Thermo Fisher Scientific). […] Data were analysed by the ΔΔCt method. […]

[5] = test system: α-Klotho; assay: Senolytics on non-senescent human astrocytes, α-Klotho Western blot and qPCR; assay type: cell-based; details: Dasatinib (200 nM) plus Quercetin (10 μM) or Fisetin (10 μM), 48 hours
Procedure: FIGS. 11A-11C. […] Non-senescent human astrocytes were treated with vehicle, Dasatinib (200 nM) plus Quercetin (10 μM), or Fisetin (10 μM) for 48 hours. FIG. 11A) α-Klotho was assayed by Western blotting with GAPDH as the loading control. FIG. 11B) α-Klotho mRNA was assayed by qPCR. FIG. 11C) Non-senescent human adipose progenitor cells were treated with Dasatinib (500 nM) plus Quercetin ([…]) or vehicle for 48 hours. α-Klotho mRNA was assayed by qPCR.

[6] = test system: α-Klotho; assay: Senolytics in naturally-aged mice, α-Klotho in urine, kidney, brain; assay type: in vivo, mouse; details: naturally-aged male mice 28-29-month-old, oral, vs vehicle (FIG. 4A)
Procedure: Wild-type C57BL/6 mice were randomly assigned to D+Q, Fisetin (F), or vehicle treatments. Treatments were started at age 26-27 months for old animals, and for DIO mice after 7-8 months of high fat-feeding beginning at 4 months of age. Mice were treated every 20 days with D+Q, F, or vehicle by oral gavage for 3 consecutive days in each of 3 cycles over 2 months (9 doses in total).

[7] = test system: α-Klotho; assay: Senolytics in mice transplanted with senescent preadipocytes, urinary α-Klotho; assay type: in vivo, mouse; details: young mice transplanted i.p. with senescent cells, treated after 3 months (FIG. 4C)
Procedure: FIGS. 4A-4D. Senolytics increase urinary and kidney α-Klotho in old or obese mice. FIG. 4A) Naturally-aged male mice (28-29-month-old, n=10 in each group) were treated with vehicle, Dasatinib plus Quercetin (D+Q), or Fisetin. Urinary α-Klotho was measured by ELISA and expressed as a function of creatinine. One-way ANOVA: F=6.39; p<0.0^5, R^2=0.30; *p=0.02, **p<0.01. FIG. 4B) DIO mice (male, 10-month-old, n=8) were treated with vehicle or D+Q and urinary α-Klotho was assayed by ELISA and expressed as a function of creatinine. Unpaired T test; **p<0.01. FIG. 4C) Six-month-old male mice (n=6 in each group) were transplanted i.p. with senescent preadipocytes. After 3 months, they were treated with vehicle, D+Q, or Fisetin. Urinary α-Klotho was assayed by ELISA and expressed as a function of creatinine. One-way ANOVA and post hoc Tukey's tests: Kruskal-Wallis statistic=10.19; *p=0.02, **p<0.01. FIG. 4D) Kidney α-Klotho protein was also assayed in the same transplanted mice by Western blotting. One-way ANOVA: F=24.24; p<0.001, R^2=0.83; ***p<0.001. […]
α-Klotho was assayed by ELISA in 1:100 diluted mouse urine (IBL America, #27601). […] Urine α-Klotho measurements are expressed as a function of urine volume, creatinine (R&D Systems, #KGE005), and/or cystatin C (R&D Systems, #MSCTC0).

[8] = test system: α-Klotho; assay: Recombinant SASP factor treatment of non-senescent HKEs, α-Klotho qPCR; assay type: cell-based, human; details: non-senescent HKEs treated with recombinant protein (FIG. 1D)
Excerpt: (§4) FIGS. 1A-1F. Senescent cell conditioned medium decreases α-Klotho; blocking particular SASP factors with neutralizing antibodies partially restores α-Klotho. FIGS. 1A-1C) Conditioned media (CM) collected from senescent or non-senescent (FIG. 1A) human primary kidney endothelial cells (HKEs; one-way ANOVA: F=19.10, p<0.0001, R^2=0.89; n=3; ****p<0.0001); (FIG. 1B) human umbilical vein endothelial cells (HUVECs; one-way ANOVA: F=3.02, p=0.02, R^2=0.58, n=3; *p=0.02, **p=0.01); or (FIG. 1C) human brain astrocytes (HBAs; one-way ANOVA: F=7.93, p=0.02, R^2=0.66; n=5; ***p<0.001, *p=0.03) were applied to non-senescent HKEs, HUVECs, or HBAs, respectively, with or without antibodies against PAI-1, CXCL1, IL-6, activin A, TNF-α, IL-1α, IL-1β, or IL-18 for 48 hours. α-Klotho mRNA was assayed by qPCR. Means SEM. FIGS. 1D-1F) Primary HKEs (FIG. 1D; n=4), HUVECs (FIG. 1E; n=4), or HBAs (FIG. 1F; n=4) were treated with recombinant activin A or IL-1α. α-Klotho was assayed by qPCR 24 hours after treatments. Means±SEM; unpaired T-tests; ***p<0.001, ****p<0.0001. […]
as §2

[9] = test system: α-Klotho; assay: Recombinant SASP factor treatment of non-senescent HUVECs, α-Klotho qPCR; assay type: cell-based, human; details: non-senescent HUVECs treated with recombinant protein (FIG. 1E)
Excerpt: as §4, §2

[10] = test system: α-Klotho; assay: Recombinant SASP factor treatment of non-senescent HBAs, α-Klotho qPCR; assay type: cell-based, human; details: non-senescent HBAs treated with recombinant protein (FIG. 1F)
Excerpt: as §4, §2

CC[C@H](C(=O)N1CCCC[C@H]1C(=O)O[C@H](CCc1ccc(OC)c(OC)c1)c1cccc(OCC(=O)NCC(CNC(=O)COc2cccc([C@@H](CCc3ccc(OC)c(OC)c3)OC(=O)[C@@H]3CCCCN3C(=O)[C@@H](CC)c3cc(OC)c(OC)c(OC)c3)c2)CN(C)C)c1)c1cc(OC)c(OC)c(OC)c1 [AP20187]
kidney α-Klotho (protein, Western blotting) [1]: did not increase
IL-1α in brains (hippocampus mRNA, qPCR) [2]: decreased
activin A in kidneys (mRNA, qPCR) [3]: decreased
urinary α-Klotho (ELISA, function of creatinine) ([4]; vs vehicle (FIG. 3D, FIG. 10)): increased
Kidney α-Klotho (mRNA by qPCR, protein by Western blot) ([4]; vs vehicle (FIGS. 3B-C)): increased
Brain α-Klotho (choroid plexus protein IF; hippocampal and cerebellar mRNA) ([4]; vs vehicle (FIGS. 3E-G)): increased

O=c1c(O)c(-c2ccc(O)c(O)c2)oc2cc(O)ccc12 [F, Fisetin]
α-Klotho (Western blotting, mRNA qPCR) [5]: did not increase
urine α-Klotho (ELISA, function of creatinine) [6]: increased
urinary α-Klotho (ELISA, function of creatinine) [7]: increased

B1: recombinant activin A: recombinant human activin A (R&D Systems, #338-AC) (protein, UniProt P08476 311-426, looked up)
Inhibin beta A chain: GLECDGKVNICCKKQFFVSFKDIGWNDWIIAPSGYHANYCEGECPSHIAGTSGSSLSFHSTVINHYRMRGHSPFANLKSCCVPTKLRPMSMLYYDDGQNIIKKDIQNMIVEECGCS
expression of α-Klotho (qPCR) [8]: decreased expression of α-Klotho
expression of α-Klotho (qPCR) [9]: decreased expression of α-Klotho
expression of α-Klotho (qPCR) [10]: decreased expression of α-Klotho

B2: IL-1α: recombinant human IL-1α protein (R&D Systems, #00-LA-010) (protein, UniProt P01583 113-271, looked up)
Interleukin-1 alpha: SAPFSFLSNVKYNFMRIIKYEFILNDALNQSIIRANDQYLTAAALHNLDEAVKFDMGAYKSSKDDAKITVILRISKTQLYVTAQDEDQPVLLKEMPEIPKTITGSETNLLFFWETHGTKNYFTSVAHPNLFIATKQDYWVCLAGGPPSITDFQILENQA
expression of α-Klotho (qPCR) [8]: decreased expression of α-Klotho
expression of α-Klotho (qPCR) [9]: decreased expression of α-Klotho
expression of α-Klotho (qPCR) [10]: decreased expression of α-Klotho
